Experimental data reported in EP2698384A1, “Detection of synthetic cannabinoids” (priority 2012, dated 2014).
Read-outs that look alike come from different tables or passages of the source.

Legend:
Format in all cases: binding, sheep
[1] = tested on: Antibody to Immunogen III
Protocol: (§1) The wells of an enhanced binding 96 well polystyrene microtiter plate were coated with IgG fraction of antiserum raised to Immunogen VI, diluted in 10mM Tris, pH8.5 (125µl/well). The appropriate antibody coating dilution was determined using standard ELISA checkerboard techniques. The plate was incubated overnight at 4°C, washed 4 times over 10 minutes with Tris buffered saline containing Tween 20 (TBST) and tapped dry. Standard solutions of RCS-4 were prepared in TBST at 0, 0.3125, 0.625, 1.25, 2.5, 5, 10 and 20ng/ml, and 50µl of each was added to the appropriate wells (see figure 1). 75µl of conjugate (appropriate hapten-HRP) diluted in Tris buffer (pH 7.2) containing EDTA, D-mannitol, sucrose, thimerosal and BSA, was added to each of the wells. The appropriate dilution of conjugate was also determined using standard ELISA checkerboard techniques. The plate was incubated at 25°C for 1 hour. Excess unbound conjugate was removed by washing 6 times over a 10 minute period with TBST. 125µl oftetramethylbenzidine (TMB) substrate solution was added to each well of the plate that was then incubated for 20 minutes in the dark at room temperature. The reaction was terminated by addition of 125µl 0.2M H2SO4 to each well. The absorbance was then measured at 450nm using a microtiter plate reader. The data are inputted to a computer program called 'KC Junior'. It is a 4 parameter fit curve and allow the calculatation of concentrations between the standard runs. This program is used to calculate the IC50s by dividing the 0ng/ml OD value by 2 and obtaining the concentration value from the curve for this OD.
In a similar manner to that described above, the wells of a 96-well microtiter plate were coated with the IgG fraction of the antiserum raised to Immunogens I, II or III. Standard solutions (JWH-250 for Immunogen III) were applied at 0, 0.625, 1.25, 2.5, 5, 10, 20 and 40ng/ml and conjugate was employed as detection reagent.
(§2) The data set our in Tables 3 and 4 are generated using antibodies raised against the indicated Immunogens in a competitive binding assay with the indicated tracers, using the indicated standards: Table 2
(§3) In order to determine the specificity of the competitive ELISAs, standard solutions of a range of structurally similar synthetic cannabinoids and their metabolites were prepared in TBST. Using the calibration curves generated and employing a single level of cross reactants, these were used to determine the cross-reactivity of each immunoassay with these substances. Table 4: Cross reactivity of the competitive ELISAs for synthetic cannabinoids and their metabolites

[2] = tested on: Antibody to Immunogen V
Protocol: as §1
In a similar manner to that described above, the wells of a 96-well microtiter plate were coated with the IgG fraction of the antiserum raised to Immunogens IV, V, VII or VIII. Standard solutions (RCS-8 for Immunogen V) were prepared in TBST at 0, 1.25, 2.5, 5, 10, 20, 40 and 80ng/ml and conjugate was employed as detection reagent.
as §2, §3

[3] = tested on: Antibody to Immunogen VI
Protocol: as §1, §2, §3

[4] = Cross-reactants at 100 ng/ml, 1000ng/ml, single level of cross reactants

For CCCCCn1cc(C(=O)c2cccc3c(Cl)cccc23)c2ccccc21 [JWH-398 5-chloronaphthyl isomer], the “%B/B0” value [1, 4] was 64.92%, the “%B/B0” value [2, 4] was 70.34% and the “%B/B0” value [3, 4] was 76.13%.

CCCCCn1cc(C(=O)c2ccc(C)c3ccccc23)c2ccccc21 [JWH-122] was tested, and the “%B/B0” value [1, 4] was 69.90%, the “%B/B0” value [2, 4] was 69.63% and the “%B/B0” value [3, 4] was 75.29%.

COc1ccc(CC(=O)c2cn(CCC3CCCCC3)c3ccccc23)cc1 [RCS-8 4-methoxy isomer] was tested, and the “%B/B0” value [1, 4] was 76.06%, the “%B/B0” value [2, 4] was 81.97% and the “%B/B0” value [3, 4] was 89.48%.

With (-)-11-nor-9-Carboxy-delta9-THC the “%B/B0” value [1] was 89.45%, the “%B/B0” value [2] was 89.31% and the “%B/B0” value [3] was 96.32%.

For O=C(c1cccc2ccccc12)c1cn(CCCCO)c2ccccc12 [JWH-073 N-(4-hydroxybutyl) metabolite], the “%B/B0” value [1, 4] was 87.63%, the “%B/B0” value [2, 4] was 63.73% and the “%B/B0” value [3, 4] was 70.57%.

O=C(c1ccccc1I)c1cn(CCCCCF)c2ccccc12 [AM-694] was tested, and the “%B/B0” value [1, 4] was 72.80%, the “%B/B0” value [2, 4] was 64.61% and the “%B/B0” value [3, 4] was 70.77%.

For O=C(c1cccc2ccccc12)c1cn(CCN2CCOCC2)c2cccc(O)c12 [JWH-200 4-hydroxyindole metabolite], the “%B/B0” value [1, 4] was 95.93%, the “%B/B0” value [2, 4] was 74.79% and the “%B/B0” value [3, 4] was 90.44%.

For CCCCn1c(O)c(C(=O)c2cccc3ccccc23)c2ccccc21, the “%B/B0” value [1, 4] was 97.53%, the “%B/B0” value [2, 4] was 91.80% and the “%B/B0” value [3, 4] was 89.23%.

In the case of CCCCCn1cc(C(=O)c2cccc3ccccc23)c2ccc(OC)cc21 [JWH-018 6-methoxyindole analogue], the “%B/B0” value [1, 4] is reported as 85.67%, the “%B/B0” value [2, 4] is reported as 73.60% and the “%B/B0” value [3, 4] is reported as 86.92%.

In the case of CCCCCn1cc(C(=O)c2cccc3ccc(CC)cc23)c2ccccc21 [JWH-210 7-ethylnaphthyl isomer or JWH-234], the “%B/B0” value [1, 4] is reported as 73.32%, the “%B/B0” value [2, 4] is reported as 85.10% and the “%B/B0” value [3, 4] is reported as 87.07%.

With O=C(O)c1c[nH]c2ccccc12 [Indole-3-carboxylic Acid] the “%B/B0” value [1, 4] was 91.19%, the “%B/B0” value [2, 4] was 64.69% and the “%B/B0” value [3, 4] was 95.41%.

In the case of CCCCCn1cc(C(=O)Cc2ccccc2C)c2ccccc21 [JWH-251], the “%B/B0” value [1, 4] is reported as 17.28%, the “%B/B0” value [2, 4] is reported as 13.61% and the “%B/B0” value [3, 4] is reported as 79.72%.

CCCCCc1cc(O)c2c(c1)OC(C)(C)[C@@H]1CCC(C)=C[C@@H]21 [Delta 9 THC] was tested, and the “%B/B0” value [1, 4] was 91.21%, the “%B/B0” value [2, 4] was 65.28% and the “%B/B0” value [3, 4] was 94.84%.

With CCCCCn1cc(C(=O)c2ccc3ccccc3c2)c2ccccc21 [JWH 018 2'-naphthyl isomer] the “%B/B0” value [1, 4] was 76.35%, the “%B/B0” value [2, 4] was 88.32% and the “%B/B0” value [3, 4] was 44.48%.

In the case of CN1CCCCC1Cn1cc(C(=O)c2cccc3ccccc23)c2ccccc21 (centres unmarked) [AM-1220], the “%B/B0” value [1, 4] is reported as 99.70%, the “%B/B0” value [2, 4] is reported as 63.74% and the “%B/B0” value [3, 4] is reported as 81.44%.

In the case of CC(F)CCCn1cc(C(=O)c2cccc3ccccc23)c2ccccc21 (single isomer, unassigned) [AM-2201 N-(4-fluoropentyl) isomer], the “%B/B0” value [1, 4] is reported as 68.00%, the “%B/B0” value [2, 4] is reported as 52.90% and the “%B/B0” value [3, 4] is reported as 71.98%.

CS(=O)(=O)O.Cc1c(C(=O)c2cccc3ccccc23)c2cccc3c2n1[C@@H](CN1CCOCC1)CO3 [Win 55,212-3 mesylate] was tested, and the “%B/B0” value [1, 4] was 87.64%, the “%B/B0” value [2, 4] was 72.78% and the “%B/B0” value [3, 4] was 83.98%.

With CCCCCn1cc(C(=O)c2ccc(OC)cc2)c2ccccc21 [RCS-4] the “%B/B0” value [1, 4] was 57.10%, the “%B/B0” value [2, 4] was 64.84% and the “%B/B0” value [3, 4] was 4.90%. The “IC50” value ([3]; standard RCS-4, standard concentration which produces 50% B/B0) was 1.020 ng/mL, the “%B/B0” value ([3]; standard curve, RCS-4 0.3125 ng/ml) was 74% and the “%B/B0” value ([3]; standard curve, RCS-4 0.625 ng/ml) was 60%. The “%B/B0” value ([3]; standard curve, RCS-4 1.25 ng/ml) was 46%, the “%B/B0” value ([3]; standard curve, RCS-4 2.5 ng/ml) was 34% and the “%B/B0” value ([3]; standard curve, RCS-4 5 ng/ml) was 25%. The “%B/B0” value ([3]; standard curve, RCS-4 10 ng/ml) was 18% and the “%B/B0” value ([3]; standard curve, RCS-4 20 ng/ml) was 13%.

For CC(O)CCCn1cc(C(=O)c2cccc3ccccc23)c2ccccc21 (racemic), the “%B/B0” value [1, 4] was 86.69%, the “%B/B0” value [2, 4] was 75.59% and the “%B/B0” value [3, 4] was 76.16%.

In the case of CCCCCn1cc(C(=O)Cc2cccc(OC)c2)c2ccccc21 [JWH-302], the “%B/B0” value [1, 4] is reported as 19.97%, the “%B/B0” value [2, 4] is reported as 32.66% and the “%B/B0” value [3, 4] is reported as 71.16%.

CCCCCCn1cc(C(=O)c2cccc3ccccc23)c2cc(O)ccc21 was tested, and the “%B/B0” value [1, 4] was 95.38%, the “%B/B0” value [2, 4] was 79.13% and the “%B/B0” value [3, 4] was 89.29%.

For CCCCCn1cc(C(=O)c2c(CC)ccc3ccccc23)c2ccccc21 [JWH-210 2-ethylnaphthyl isomer], the “%B/B0” value [1, 4] was 85.02%, the “%B/B0” value [2, 4] was 85.10% and the “%B/B0” value [3, 4] was 89.90%.

In the case of CC(O)CCn1cc(C(=O)c2cccc3ccccc23)c2ccccc21 (centres unmarked) [JWH-073 N-(3-hydroxybutyl) metabolite], the “%B/B0” value [1, 4] is reported as 94.05%, the “%B/B0” value [2, 4] is reported as 63.79% and the “%B/B0” value [3, 4] is reported as 72.55%.

With CCCCCn1cc(C(=O)c2cccc3c(OC)cccc23)c2ccccc21 [JWH-081 5-methoxynaphthyl isomer] the “%B/B0” value [1, 4] was 76.35%, the “%B/B0” value [2, 4] was 90.40% and the “%B/B0” value [3, 4] was 77.74%.

In the case of O=C(c1cccc2ccccc12)c1cn(CCCCCF)c2ccccc12 [AM-2201], the “%B/B0” value [1, 4] is reported as 67.95%, the “%B/B0” value [2, 4] is reported as 76.07% and the “%B/B0” value [3, 4] is reported as 76.96%.

O=C(c1ccc(Cl)c2ccccc12)c1cn(CCCCCO)c2ccccc12 [JWH-398 N-(5-hydroxypentyl) metabo lite] was tested, and the “%B/B0” value [1, 4] was 76.01%, the “%B/B0” value [2, 4] was 55.87% and the “%B/B0” value [3, 4] was 69.24%.

In the case of CCCCCC(C)n1c(C)c(C(=O)c2cccc3ccccc23)c2ccccc21 (centres unmarked) [JWH-011], the “%B/B0” value [1, 4] is reported as 93.19%, the “%B/B0” value [2, 4] is reported as 83.73% and the “%B/B0” value [3, 4] is reported as 88.22%.

For CC(C)CCn1cc(C(=O)c2cccc3ccccc23)c2ccccc21 [JWH 018 N-(3-methylbutyl) isomer (JWH-073 3-methylbutyl homologue)], the “%B/B0” value [1, 4] was 82.58%, the “%B/B0” value [2, 4] was 63.42% and the “%B/B0” value [3, 4] was 66.63%.

CC(C)C(C)n1cc(C(=O)c2cccc3ccccc23)c2ccccc21 (single isomer, unassigned) [JWH 018 N-(1,2-dimethylpropyl) isomer] was tested, and the “%B/B0” value [1, 4] was 90.17%, the “%B/B0” value [2, 4] was 74.41% and the “%B/B0” value [3, 4] was 83.71%.

In the case of CCCCCn1cc(C(=O)c2c(OC)ccc3ccccc23)c2ccccc21 [JWH-081 2-methoxynaphthyl isomer or (JWH-267)], the “%B/B0” value [1, 4] is reported as 85.59%, the “%B/B0” value [2, 4] is reported as 70.37% and the “%B/B0” value [3, 4] is reported as 86.87%.

In the case of COc1cccc(CC(=O)c2cn(CCC3CCCCC3)c3ccccc23)c1 [RCS-8 3-methoxy isomer], the “%B/B0” value [1, 4] is reported as 69.47%, the “%B/B0” value [2, 4] is reported as 38.01% and the “%B/B0” value [3, 4] is reported as 79.95%.

For O=C(c1cccc(I)c1)c1cn(CCCCCF)c2ccccc12 [AM-694 3-iodo isomer], the “%B/B0” value [1, 4] was 67.86%, the “%B/B0” value [2, 4] was 63.18% and the “%B/B0” value [3, 4] was 44.38%.
